In this assay the test system is L1210. Put plainly: Inhibitory activity against L1210 cell line. The assay is classed as functional, cell-based. Particulars: Mus musculus.

SMILES strings stand for the structures.

Consider `COc1cc([C@@H]2c3cc4c(cc3[C@@H](O[C@@H]3O[C@H]5CO[C@@H](C)O[C@H]5[C@H](O)[C@@H]3O)[C@H]3C(=O)OC[C@H]23)OCO4)cc(OC)c1O`, for which half-maximal inhibition (IC50) was put at 6.74 µM.
`COc1cc([C@@H]2c3cc4c(cc3[C@@H](O)C3C(=O)OCC32)OCO4)cc(OC)c1O` (stereo partly drawn) yielded an IC50 of 27.4 µM.
Next, `COc1cc([C@@H]2c3cc4c(cc3[C@@H](O[C@@H]3O[C@@H]5CO[C@@H](C)O[C@H]5[C@H](O)[C@H]3O)[C@H]3COC(=O)[C@H]23)OCO4)cc(OC)c1O` [ETOPOSIDE]: 0.834 µM.

The values above are taken from ChEMBL document CHEMBL1136446, “Synthesis and antiproliferative activity of retroetoposide” (Bioorg Med Chem Lett, 2003).
